A melting point compilation (Tetko et al.; mined from patent text by program, amines drawn as free bases though some values may be those of a salt)

| Structure (SMILES) | melting point |
| --- | --- |
| Cc1ccc(S(=O)(=O)Nc2ccc([N+](=O)[O-])cc2C#N)cc1 | 166 to 167 °C |
| CCCN(CCC)C(C)C(=O)Nc1cccc2c1C(=O)c1c(NC(=O)C(C)N(CCC)CCC)cccc1C2=O (configuration not stated) | 129 to 130 °C |
| O=c1c(Cl)nsnc1Oc1cccnc1 | 134 to 136 °C |
| COC(=O)C1CC(C#N)(c2ccccc2)CCC1=O (configuration not stated) | 75 to 80 °C |
| Cc1cc2cc(O)ccc2[nH]1 | 124 to 126 °C |
| COc1ccc(COc2cccc(OC)c2C(=O)/C=C(\Nc2cnc(C#N)cn2)SC)cc1 | 128 to 135 °C |
| NC1C(=O)N(CCCO)c2ccccc2N(c2ccccc2)C1=O (configuration not stated) | 55 to 58 °C |
| CN(C(C)(C)C)S(=O)(=O)CC(N)=O | 105 to 109 °C |
| C[C@@H]1Cc2cc([N+](=O)[O-])ccc2N1 | 63 to 64 °C |
| CCOC(=O)C1=C(COCCNc2nc(C(=O)NC)cs2)NC(C)=C(C(=O)OC)C1c1ccccc1Cl (configuration not stated) | 120 °C |
| COc1cccc(Oc2cccc(Oc3ccc4c(c3)OCO4)c2C(=O)O)c1 | 146 to 148 °C |
| O=C(Cn1c(-c2ccc3c(c2)OCO3)nc2ccccc21)c1ccccc1 | 186 to 189 °C |
| CCSc1ccnc2sc(C(N)=O)c(N)c12 | 230 to 235 °C |
| O=C(NCCO)c1cccc(-c2ccc3ccn(-c4ncc(Cl)cc4Cl)c3n2)c1 | 196 to 197 °C |
| O=C1CCCn2c(=O)n(Cc3ccccc3)c3cccc1c32 | 135 °C |
| CCCCCCCCOc1ccc(CC(=O)[C@H]2CC[C@H](CCCCC)CC2)c(F)c1F | 59 °C |
| NC(=O)c1nc(-c2cccc(O)c2)nc2c1[nH]c(=O)n2C1CCc2ccccc21 (configuration not stated) | 341 to 343 °C |
| CCN1CCC(c2cc3ccc(C)cc3c(=O)[nH]2)CC1 | 239 to 241 °C |
| COc1cc([N+](=O)[O-])ccc1N1CCN(CCCNc2c(C)c(=O)n(C)c(=O)n2C)CC1 | 131 to 133 °C |
| CC(C)(C)OC(=O)[C@@H]1CS[C@H](c2cccnc2)N1C(=O)CNC(=O)Nc1cccc(C(=O)O)c1 | 147 °C |
| N#Cc1ccsc1N=Cc1ccc([N+](=O)[O-])s1 | 192 to 194 °C |
| CC(C)c1ccc(S(=O)(=O)n2c(Cc3ccc(C(=O)O)c(F)c3)cc3cc(Cl)ccc32)cc1 | 196 °C |
| CCOc1cc2oc(=O)c3c(c2cc1OCC)CCN(CCN1CC2CCC(CC2)C1)C3 | 132 to 134 °C |
| CCOCn1c(C(N)=O)c(OC(C)C)c2cc(OC)ccc21 | 110 to 112 °C |

| Structure (SMILES) | melting point |
| --- | --- |
| O=S(=O)(CCl)Nc1ccnn1-c1c(Cl)cc(C(F)(F)F)cc1Cl | 63 to 66 °C |
| CC1(C)CCC(C)(C)c2cc3sc(-c4ccc(C(=O)O)cc4)cc3cc21 | 291 to 292 °C |
| Cc1ccc(NC(=O)C2C(=O)C3CC[C@](C)(C2=O)C3(C)C)cc1 (some centres not stated) | 80 to 82 °C |
| CCc1nc2c(cnn2CC)c(NC2CCOCC2)c1CNC(=O)c1cccc(C(=O)NCc2cc(Cl)cc(-c3cccc(CN4CC5CC4CN5)c3)c2)c1 (configuration not stated) | 130 to 133 °C |
| OCC1(c2ccc(Cl)cc2)CCC1 | 53 to 54 °C |
| CSC(=NC(C)=O)Nc1ccccc1[N+](=O)[O-] | 120 to 122 °C |
| CCOC(=O)c1cnn2c1c(SC)nc1c(C)nn(C)c12 | 86 to 87 °C |
| O=S1(=O)c2cccc3cccc(c23)N1CCCN1CCN(c2ccccc2F)CC1 | 112 °C |
| Cc1c(Cl)cccc1N=C1NCCN1C(=O)c1ccc(C#N)cc1 | 224 to 228 °C |
| O=C(Nc1ccc(-c2nnn[nH]2)cc1)C(=O)N1CCC(Cc2ccccc2)CC1 | 127 to 129 °C |
| Cc1c(CC(=O)O)c2cc3c(cc2n1C(=O)c1ccc(Cl)cc1)OCO3 | 190 to 191 °C |
| COC(=O)C(C)NC(=O)C1CCCN1C(=O)OCc1ccccc1 (configuration not stated) | 45 to 49 °C |
| CCCOc1cc(CCCOc2c(CC(=O)O)cccc2OC)n(Cc2ccc3ccccc3n2)n1 | 97 to 98 °C |
| CCCCN(C)C(=O)CSCCCCCOc1ccc(C2=C(c3ccccc3)CCCc3cc(O)ccc32)cc1 | 112 to 114 °C |
| CNS(=O)(=O)Oc1ccccc1OC | 68 to 71 °C |
| COc1cc(OC)n2sc(=NS(=O)(=O)c3c(-c4nnn(C)n4)cnn3C)nc2n1 | 182 to 183 °C |
| CN1C(=O)CC[C@]2(C)c3ccc(-c4cccc5ccccc45)cc3CC[C@@H]12 | 159 °C |
| COc1cc(C(=O)N2Cc3ccccc3Cc3ccccc32)ccc1NC(=O)C1(C)C=CC=CC1 (configuration not stated) | 209 to 210 °C |
| COC(=O)Cc1cnc(-c2ccccc2)n1Cc1ccc([N+](=O)[O-])cc1 | 113 to 116 °C |
| CCCN(CC)C(=O)c1ccc(CN2C(=O)C(c3ccccc3Cl)(N(C)C)c3cc(Cl)ccc32)cc1 (configuration not stated) | 208 °C |
| CC(C)C(C)(C)N1N=C([O-])O[NH2+]1 | 38 °C |
| COC(=O)c1cc(C(=O)NCCN(C)C)c2cc(Cc3ccc(F)cc3)cnc2c1O | 115 to 116 °C |
| CCCCCCCCCCOc1ccc(C(=O)Nc2ccc(C(=O)O)cc2)cc1C12CC3CC(CC(C3)C1)C2 | 247 to 248 °C |
